Tests used:
[1] = target: T1, Prostaglandin G/H synthase 2 (Homo sapiens, UniProt P35354); assay: Compound was evaluated for inhibitory activity against human Prostaglandin G/H synthase 2
T1 sequence (P35354 whole entry): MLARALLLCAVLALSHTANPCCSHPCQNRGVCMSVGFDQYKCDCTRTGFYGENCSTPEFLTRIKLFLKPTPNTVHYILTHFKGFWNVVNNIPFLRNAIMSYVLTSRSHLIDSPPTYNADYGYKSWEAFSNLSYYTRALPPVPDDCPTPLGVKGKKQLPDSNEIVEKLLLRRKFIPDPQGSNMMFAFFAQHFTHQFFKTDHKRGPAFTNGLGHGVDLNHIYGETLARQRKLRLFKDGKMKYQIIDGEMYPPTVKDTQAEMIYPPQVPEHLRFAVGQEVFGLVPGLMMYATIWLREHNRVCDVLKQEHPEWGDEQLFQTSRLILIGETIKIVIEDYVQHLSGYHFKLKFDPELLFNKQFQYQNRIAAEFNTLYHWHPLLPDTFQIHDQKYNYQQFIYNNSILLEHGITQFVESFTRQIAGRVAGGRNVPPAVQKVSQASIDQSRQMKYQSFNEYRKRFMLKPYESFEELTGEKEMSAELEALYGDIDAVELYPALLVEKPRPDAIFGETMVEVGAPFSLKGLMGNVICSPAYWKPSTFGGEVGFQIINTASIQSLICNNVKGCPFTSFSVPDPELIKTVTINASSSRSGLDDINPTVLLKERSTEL

[2] = target: T2, Prostaglandin G/H synthase 1 (Ovis aries, UniProt P05979); assay: Compound was evaluated for inhibitory activity against ovine Prostaglandin G/H synthase 1
T2 sequence (P05979 whole entry): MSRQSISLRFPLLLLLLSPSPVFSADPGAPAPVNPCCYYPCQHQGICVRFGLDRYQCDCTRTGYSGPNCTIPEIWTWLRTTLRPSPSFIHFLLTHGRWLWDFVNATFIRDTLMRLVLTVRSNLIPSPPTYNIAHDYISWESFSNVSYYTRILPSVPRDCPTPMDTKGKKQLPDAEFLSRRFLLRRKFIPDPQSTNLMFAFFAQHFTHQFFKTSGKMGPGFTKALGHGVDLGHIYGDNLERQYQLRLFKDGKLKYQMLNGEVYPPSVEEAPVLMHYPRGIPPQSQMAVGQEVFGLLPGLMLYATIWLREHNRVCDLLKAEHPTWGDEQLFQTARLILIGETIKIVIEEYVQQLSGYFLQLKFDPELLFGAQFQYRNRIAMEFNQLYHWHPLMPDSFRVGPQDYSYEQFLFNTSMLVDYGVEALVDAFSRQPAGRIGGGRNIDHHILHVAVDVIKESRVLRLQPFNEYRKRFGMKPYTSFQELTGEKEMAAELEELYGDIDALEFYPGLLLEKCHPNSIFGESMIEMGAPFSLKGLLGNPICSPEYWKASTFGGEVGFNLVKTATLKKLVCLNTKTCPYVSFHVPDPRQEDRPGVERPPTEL

[3] = Half life period was evaluated against Sprague-Dawley rats at a dose of 15 mg/kg after iv administration; type: ADME, organism-based; set-up: dose 15 mg/kg, route intravenous; details: rat, in vivo
[4] = Half life period was evaluated in Sprague-Dawley rats at a dose of 15 mg/kg after po administration; type: ADME, organism-based; set-up: dose 15 mg/kg, route oral; details: rat, in vivo
[5] = Volume of distribution was evaluated in Sprague-Dawley rats at a dose of 15 mg/kg after iv administration; type: ADME, organism-based; set-up: dose 15 mg/kg, route intravenous; details: rat, in vivo, read-out: Vss
[6] = Oral bioavailability in rat (Sprague-Dawley) (dose 15 mg/kg); type: ADME, organism-based; details: in vivo
[7] = Plasma clearance was evaluated in Sprague-Dawley rats at a dose of 15 mg/kg after iv administration; type: ADME, organism-based; set-up: dose 15 mg/kg, route intravenous; details: rat
[8] = Time taken to reach maximum concentration in plasma was evaluated in Sprague-Dawley rats at a dose of 15 mg/kg after po administration; type: ADME, organism-based; set-up: dose 15 mg/kg, route oral; details: rat
[9] = Maximum concentration in plasma was evaluated in Sprague-Dawley rats at a dose of 15 mg/kg after po administration; type: ADME, organism-based; set-up: dose 15 mg/kg, route oral; details: rat

Structure (SMILES) | IC50 [1] [µM] | IC50 [2] [µM] | other results
COc1ccc(-c2cscc2-c2ccc(S(C)(=O)=O)cc2)cc1 | 5 | > 1000 | 
Cc1ccc(-c2sccc2-c2ccc(S(C)(=O)=O)cc2)cc1 | 13 | > 1000 | 
CS(=O)(=O)c1ccc(-c2cc(CCC(=O)O)sc2-c2ccc(F)cc2)cc1 | > 300 | 12 | 
CS(=O)(=O)c1ccc(-c2cscc2-c2ccc(F)cc2)cc1 | 8 | 674 | 
Cc1ccc(-c2cscc2-c2ccc(S(C)(=O)=O)cc2)cc1 | 4 | 438 | 
CSc1ccc(-c2cscc2-c2ccc(SC)cc2)cc1 | 101 | 15 | 
CS(=O)(=O)c1ccc(-c2cc(S(C)(=O)=O)sc2-c2ccc(F)cc2)cc1 | 200 | > 300 | 
CS(=O)(=O)c1ccc(-c2cc(N)sc2-c2ccc(F)cc2)cc1 | 3 | 6 | 
CS(=O)(=O)c1ccc(-c2ccsc2-c2ccccc2)cc1 | 4 | > 1000 | 
CS(=O)(=O)c1ccc(-c2cscc2-c2ccccc2)cc1 | 4 | > 1000 | 
CS(=O)(=O)c1ccc(-c2cc(CC#N)sc2-c2ccc(F)cc2)cc1 | 49 | > 300 | 
CS(=O)(=O)c1ccc(-c2ccsc2-c2ccc(F)cc2)cc1 | 8 | 490 | half-life [3]: 14.3 h; half-life [4]: 12.1 h; Vd [5]: 19 L/kg; bioavailability [6]: 3.4%; clearance [7]: 158 mL/min/kg; Tmax [8]: 4 h; Cmax [9]: 8 ng/mL
Cc1cc(-c2ccc(S(C)(=O)=O)cc2)c(-c2ccc(F)cc2)s1 | 10 | 80 | half-life [3]: 19.4 h; Vd [5]: 16.8 L/kg; bioavailability [6]: 0.9%; clearance [7]: 28.2 mL/min/kg; Tmax [8]: 0.7 h; Cmax [9]: 20 ng/mL

Source: ChEMBL document CHEMBL1150491, “Chemistry and pharmacokinetics of diarylthiophenes and terphenyls as selective COX-2 inhibitors” (Bioorg Med Chem Lett, 1996)
